Assay results taken from patent US20180200257A1, “METHODS FOR THE TREATMENT OF INFLAMMATORY DISORDERS” (Galapagos NV, priority 2015, published 2018).

Tested on: Subjects With Active Crohn's Disease With Evidence of Mucosal Ulceration
Test: Study 3 - Aspartate Aminotransferase (AST) levels
Assay type: in vivo, human
Description: Double-Blind, Randomized, Placebo-Controlled, Multi-Centre Study to Investigate the Efficacy and Safety of Compound 1 in Subjects With Active Crohn's Disease With Evidence of Mucosal Ulceration. This is a double-blind, randomized, placebo-controlled, multi-centre Phase 2 study to investigate the efficacy and safety of Compound 1 administered once daily for the treatment of active CD with evidence of mucosal ulceration. The pharmacokinetics (including a PK substudy) and pharmacodynamics of Compound 1 and metabolite in CD will also be characterised. A total of 180 eligible subjects will be randomized to receive Compound 1 or placebo in addition to their stable background treatment (eg, corticosteroids, aminosalicylates, or CD-related antibiotics). The study will consist of 2 parts, with total treatment duration of 20 weeks. Randomization in Part 1 will be stratified according the subject's previous anti-TNF exposure/response, CRP level at Screening, and oral corticosteroid use at visit Day −1. After the first 10 weeks of treatment in Part 1, patients will be re-randomized for Part 2 as shown in the diagram below and will be stratified according to the subject's clinical response, previous anti-TNF exposure/response, and oral corticosteroid use at visit Day -1. [table] AST levels determination is available at Quest Diagnostics, Clinical Trials, Quest House, 125-135 Staines Road, Hounslow, Middlesex, TW3 3JB, United Kingdom under Catalogue n#84450. For Study 3, the data are obtained at BARC Europe, 3B,Industrie Park, Zwijnaarde, B-9052 Ghent, Belgium. AST catalyzes the transamination of aspartate and 2-oxoglutarate, forming L-glutamate and oxalacetate. The oxalacetate is reduced to L-malate by malate dehydrogenase, whilst NADH is converted to NAD+, measured spectrophotometrically. Guidelines for the AST value have been issued by the association for Clinical Biochemistry and Laboratory Medicine, 130-132 Tooley Street LONDON SE1 2TU, united Kingdom, wherein the AST value should be below 34 U/l in Female and below 45 U/L in male. As disclosed in the respective study protocols for Study 1 or 2, at week 12, depending on the outcome of their treatment, the subjects may be continued in their initial treatment course, or reassigned to another treatment group in a randomized blinded fashion until week 24. Therefore, the number of subjects (N) for the period of either 12 weeks, or 24 weeks is provided to reflect this redistribution at week 12.

[1] = 10 weeks results, 200 mg q.d., week 2
[2] = 10 weeks results, 200 mg q.d., week 4
[3] = 10 weeks results, 200 mg q.d., week 6
[4] = 10 weeks results, 200 mg q.d., week 10
[5] = 20 weeks results, 200 mg q.d. week 0 to 10, to 100 mg q.d. week 10 to 20, week 2
[6] = 20 weeks results, 200 mg q.d. week 0 to 10, to 100 mg q.d. week 10 to 20, week 4
[7] = 20 weeks results, 200 mg q.d. week 0 to 10, to 100 mg q.d. week 10 to 20, week 6
[8] = 20 weeks results, 200 mg q.d. week 0 to 10, to 100 mg q.d. week 10 to 20, week 10
[9] = 20 weeks results, 200 mg q.d. week 0 to 10, to 100 mg q.d. week 10 to 20, week 12
[10] = 20 weeks results, 200 mg q.d. week 0 to 10, to 100 mg q.d. week 10 to 20, week 16
[11] = 20 weeks results, 200 mg q.d. week 0 to 10, to 100 mg q.d. week 10 to 20, week 20
[12] = 20 weeks results, 200 mg q.d. week 0 to 10, to placebo week 10 to 20, week 2
[13] = 20 weeks results, 200 mg q.d. week 0 to 10, to placebo week 10 to 20, week 4
[14] = 20 weeks results, 200 mg q.d. week 0 to 10, to placebo week 10 to 20, week 6
[15] = 20 weeks results, 200 mg q.d. week 0 to 10, to placebo week 10 to 20, week 10
[16] = 20 weeks results, 200 mg q.d. week 0 to 10, to placebo week 10 to 20, week 12
[17] = 20 weeks results, 200 mg q.d. week 0 to 10, to placebo week 10 to 20, week 16
[18] = 20 weeks results, 200 mg q.d. week 0 to 10, to placebo week 10 to 20, week 20
[19] = 20 weeks results, continued 200 mg q.d., week 2
[20] = 20 weeks results, continued 200 mg q.d., week 4
[21] = 20 weeks results, continued 200 mg q.d., week 6
[22] = 20 weeks results, continued 200 mg q.d., week 10
[23] = 20 weeks results, continued 200 mg q.d., week 12
[24] = 20 weeks results, continued 200 mg q.d., week 16
[25] = 20 weeks results, continued 200 mg q.d., week 20
[26] = 20 weeks results, placebo week 0 to 10, to 100 mg q.d. week 10 to 20, week 12
[27] = 20 weeks results, placebo week 0 to 10, to 100 mg q.d. week 10 to 20, week 16
[28] = 20 weeks results, placebo week 0 to 10, to 100 mg q.d. week 10 to 20, week 20

With `O=C(Nc1nc2cccc(-c3ccc(CN4CCS(=O)(=O)CC4)cc3)n2n1)C1CC1` [Compound 1, cyclopropanecarboxylic acid {5-[4-(1,1-dioxo-thiomorpholin-4-ylmethyl)-phenyl]-[1,2,4]triazolo[1,5-a]pyridin-2-yl}-amide] the “Study 3 - AST Mean CFB” value [1] was 3.0 IU/L, the “Study 3 - AST Mean percentage CFB” value [1] was 20.1% and the “Study 3 - AST Mean CFB” value [2] was 1.5 IU/L. The “Study 3 - AST Mean percentage CFB” value [2] was 13.4%, the “Study 3 - AST Mean CFB” value [3] was 1.3 IU/L and the “Study 3 - AST Mean percentage CFB” value [3] was 12.0%. The “Study 3 - AST Mean CFB” value [4] was 5.4 IU/L, the “Study 3 - AST Mean percentage CFB” value [4] was 38.7% and the “Study 3 - AST Mean CFB” value [5] was 1.50 IU/L. The “Study 3 - AST Mean percentage CFB” value [5] was 11.88%, the “Study 3 - AST Mean CFB” value [6] was 3.28 IU/L and the “Study 3 - AST Mean percentage CFB” value [6] was 19.48%. For the same molecule, the “Study 3 - AST Mean CFB” value [7] was 1.40 IU/L, the “Study 3 - AST Mean percentage CFB” value [7] was 10.05% and the “Study 3 - AST Mean CFB” value [8] was 3.90 IU/L. The “Study 3 - AST Mean percentage CFB” value [8] was 23.93%, the “Study 3 - AST Mean CFB” value [9] was 1.13 IU/L and the “Study 3 - AST Mean percentage CFB” value [9] was 10.30%. The “Study 3 - AST Mean CFB” value [10] was 2.82 IU/L, the “Study 3 - AST Mean percentage CFB” value [10] was 20.91% and the “Study 3 - AST Mean CFB” value [11] was 8.15 IU/L. The “Study 3 - AST Mean percentage CFB” value [11] was 50.50%, the “Study 3 - AST Mean CFB” value [12] was 0.96 IU/L and the “Study 3 - AST Mean percentage CFB” value [12] was 8.86%. The “Study 3 - AST Mean CFB” value [13] was 1.96 IU/L, the “Study 3 - AST Mean percentage CFB” value [13] was 13.24% and the “Study 3 - AST Mean CFB” value [14] was 1.87 IU/L. For the same molecule, the “Study 3 - AST Mean percentage CFB” value [14] was 12.17%, the “Study 3 - AST Mean CFB” value [15] was 7.17 IU/L and the “Study 3 - AST Mean percentage CFB” value [15] was 45.50%. For the same molecule, the “Study 3 - AST Mean CFB” value [16] was 2.87 IU/L, the “Study 3 - AST Mean percentage CFB” value [16] was 14.82% and the “Study 3 - AST Mean CFB” value [17] was 2.62 IU/L. The “Study 3 - AST Mean percentage CFB” value [17] was 16.62%, the “Study 3 - AST Mean CFB” value [18] was 3.14 IU/L and the “Study 3 - AST Mean percentage CFB” value [18] was 21.09%. For the same molecule, the “Study 3 - AST Mean CFB” value [19] was 4.24 IU/L, the “Study 3 - AST Mean percentage CFB” value [19] was 26.67% and the “Study 3 - AST Mean CFB” value [20] was 0.73 IU/L. For the same molecule, the “Study 3 - AST Mean percentage CFB” value [20] was 11.03%, the “Study 3 - AST Mean CFB” value [21] was 1.12 IU/L and the “Study 3 - AST Mean percentage CFB” value [21] was 12.72%. For the same molecule, the “Study 3 - AST Mean CFB” value [22] was 5.61 IU/L, the “Study 3 - AST Mean percentage CFB” value [22] was 43.70% and the “Study 3 - AST Mean CFB” value [23] was 1.64 IU/L. For the same molecule, the “Study 3 - AST Mean percentage CFB” value [23] was 18.27%, the “Study 3 - AST Mean CFB” value [24] was 3.78 IU/L and the “Study 3 - AST Mean percentage CFB” value [24] was 32.98%. For the same molecule, the “Study 3 - AST Mean CFB” value [25] was 1.53 IU/L, the “Study 3 - AST Mean percentage CFB” value [25] was 19.45% and the “Study 3 - AST Mean CFB” value [26] was 1.64 IU/L. The “Study 3 - AST Mean percentage CFB” value [26] was 16.84%, the “Study 3 - AST Mean CFB” value [27] was 0.68 IU/L and the “Study 3 - AST Mean percentage CFB” value [27] was 10.89%. The “Study 3 - AST Mean CFB” value [28] was 1.10 IU/L and the “Study 3 - AST Mean percentage CFB” value [28] was 16.93%.
